Measurements taken from US20220117938A1, “COMBINATON THERAPY WITH A DON PRODRUG AND AN IMMUNE CHECKPOINT INHIBITOR” (DRACEN PHARMACEUTICALS, INC., priority 2019, published 2022).

Test system: 4T1 tumors
Test: Anti-tumor efficacy of Compound 1 with and without anti-PD-1 in the 4T1 murine mammary cancer model (Example 2A)
Format: in vivo, Mus musculus
Conditions: for Tumor volume (mm^3), Mean ± SEM: n = 8; for ILS (%) / MST: endpoint tumor volume 2000 mm^3; for RTV at day 25 / T/C (%) / TGI (%) / Tumor Size (mm^3) at day 25, Mean ± SEM: day 25
Description: Female BALB/c mice were inoculated subcutaneously at the mammary fat pat with 4T1 cells for tumor development. Six days after tumor inoculation, 48 mice with tumor size ranging from 49-88 mm^3 (average tumor size 59 mm^3) were selected and assigned into 6 groups using stratified randomization with 8 mice per group based upon their tumor volumes. The treatments were started from the day of randomization (defined as D0), Group 1 was treated with Vehicle (Tween 80:Ethanol:Saline—5:5:90 v/v/v), s.c. q.d.×14, Group 2 was treated with anti-PD-1 10 mg/kg i.p. q4d×4, Group 3 was treated with Compound 1 3 mg/kg s.c. q.d.×5D followed by 1 mg/kg s.c. q.d.×9D, Group 4 was treated with Compound 13 mg/kg s.c. q.d.×5D followed by 1 mg/kg s.c. q.d.×9D+anti-PD-1 10 mg/kg i.p. q4d×4, Group 5 was treated with Compound 11 mg/kg s.c. q.d.×14D and Group 6 was treated with Compound 11 mg/kg s.c. q.d.×14D+anti-PD-1 10 mg/kg i.p. q4d×4. The tumor sizes were measured three times per week during the treatment. The entire study was terminated on D42 after start of the treatment. In this study anti mPD-1 (catalog number BE0146) was used.
Animal Species: Mus musculus; Strain: BALB/c; Age: 6-8 weeks; Sex: female; Body weight (at treatment start): 20-24 g.
The 4T1 tumor cells were maintained in vitro as a monolayer culture in RPMI-1640 medium supplemented with 10% heat inactivated fetal bovine serum and 100 μg/mL penicillin streptomycin at 37° C. in an atmosphere of 5% CO2 in air. The tumor cells were routinely subcultured twice weekly by trypsin-EDTA treatment. The cells growing to a confluency around 70%-80% were harvested and counted for tumor inoculation. The cultured 4T1 cells were harvested, re-suspended in base medium at a density of 2×10^6 cells/mL with viability >90%. Each mouse was inoculated subcutaneously at the […] with 1×10^5 in 0.05 ml base medium for tumor development.
The treatments were started on day 6 after tumor inoculation when the tumor size reached 49-88 mm^3 (average tumor size 59 mm^3). Each group consisted of 8 tumor bearing mice. The testing article was administrated at the dosing volume indicated to the mice according to the predetermined regimen as shown Table 2A-1. Testing article formulations were prepared according to standard procedures. Details regarding tumor measurements and endpoints, and statistical analysis are provided in EXAMPLE 3.
Tumor sizes were measured three times a week in two dimensions using a caliper, and the volume expressed in mm^3 using the formula: V=0.5 a×b^2 where a and b are the long and short diameters of the tumor, respectively. The tumor sizes were then used for the calculations of both tumor growth inhibition (TGI) and T/C values.
TGI is calculated for each group using the formula: […]
TVTreatment_DayN is the average tumor volume of a treatment group on a given day, TVTreatment_Day0 is the average tumor volume of the treatment group on the first day of treatment, TVVehicle_DayN is the average tumor volume of the vehicle control group on a given day, and TVVehicle_Day0 is the average tumor volume of the vehicle group on the first day of treatment.
The T/C value (in percent) is an indication of antitumor effectiveness, T/C (%)=RTVTreatment/RTVControl×100% (RTVTreatment: the mean RTV of the treatment group; RTVControl: the mean RTV of the vehicle treated group). RTV (relative tumor volume)=TVDayN/TVDay0. TVDayN and TVDay0 is the tumor volume on day N and Day 0 respectively. T/C (%)≤42% is considered as significant antitumor activity and <10% is considered as highly significant antitumor activity by the National Cancer Institute criteria.
Animal survival curve: When an individual animal reached to the termination endpoint (TV>2000 mm^3), the mouse was euthanized. The time from treatment initiation to the termination was deemed as its survival time. Survival curve was plotted by Kaplan-Meier method. Median survival time (MST) was calculated for each group. […]

## CC(=O)N[C@@H](Cc1c[nH]c2ccccc12)C(=O)N[C@@H](CCC(=O)C=[N+]=[N-])C(=O)OC(C)C [Compound 1, Isopropyl (S)-2-((S)-2-acetamido-3-(1H-indol-3-yl)propanamido)-6-diazo-5-oxohexanoate]
1 mg/kg qdx14 s.c., Day 0
  Tumor volume (mm^3), Mean ± SEM: 58 ± 3 mm^3
1 mg/kg qdx14 s.c., Day 2
  Tumor volume (mm^3), Mean ± SEM: 75 ± 4 mm^3
1 mg/kg qdx14 s.c., Day 4
  Tumor volume (mm^3), Mean ± SEM: 85 ± 4 mm^3
1 mg/kg qdx14 s.c., Day 7
  Tumor volume (mm^3), Mean ± SEM: 108 ± 4 mm^3
1 mg/kg qdx14 s.c., Day 9
  Tumor volume (mm^3), Mean ± SEM: 130 ± 10 mm^3
1 mg/kg qdx14 s.c., Day 11
  Tumor volume (mm^3), Mean ± SEM: 158 ± 12 mm^3
1 mg/kg qdx14 s.c., Day 14
  Tumor volume (mm^3), Mean ± SEM: 172 ± 11 mm^3
1 mg/kg qdx14 s.c., Day 16
  Tumor volume (mm^3), Mean ± SEM: 215 ± 17 mm^3
1 mg/kg qdx14 s.c., Day 18
  Tumor volume (mm^3), Mean ± SEM: 300 ± 23 mm^3
1 mg/kg qdx14 s.c., Day 21
  Tumor volume (mm^3), Mean ± SEM: 441 ± 31 mm^3
1 mg/kg qdx14 s.c., Day 23
  Tumor volume (mm^3), Mean ± SEM: 622 ± 44 mm^3
1 mg/kg qdx14 s.c., Day 25
  Tumor volume (mm^3), Mean ± SEM: 782 ± 53 mm^3
3 mg/kg qdx5 then 1 mg/kg qdx9 s.c., Day 0
  Tumor volume (mm^3), Mean ± SEM: 59 ± 3 mm^3
3 mg/kg qdx5 then 1 mg/kg qdx9 s.c., Day 2
  Tumor volume (mm^3), Mean ± SEM: 72 ± 4 mm^3
3 mg/kg qdx5 then 1 mg/kg qdx9 s.c., Day 4
  Tumor volume (mm^3), Mean ± SEM: 76 ± 3 mm^3
3 mg/kg qdx5 then 1 mg/kg qdx9 s.c., Day 7
  Tumor volume (mm^3), Mean ± SEM: 80 ± 3 mm^3
3 mg/kg qdx5 then 1 mg/kg qdx9 s.c., Day 9
  Tumor volume (mm^3), Mean ± SEM: 88 ± 6 mm^3
3 mg/kg qdx5 then 1 mg/kg qdx9 s.c., Day 11
  Tumor volume (mm^3), Mean ± SEM: 113 ± 9 mm^3
3 mg/kg qdx5 then 1 mg/kg qdx9 s.c., Day 14
  Tumor volume (mm^3), Mean ± SEM: 171 ± 12 mm^3
3 mg/kg qdx5 then 1 mg/kg qdx9 s.c., Day 16
  Tumor volume (mm^3), Mean ± SEM: 245 ± 17 mm^3
3 mg/kg qdx5 then 1 mg/kg qdx9 s.c., Day 18
  Tumor volume (mm^3), Mean ± SEM: 356 ± 27 mm^3
3 mg/kg qdx5 then 1 mg/kg qdx9 s.c., Day 21
  Tumor volume (mm^3), Mean ± SEM: 565 ± 37 mm^3
3 mg/kg qdx5 then 1 mg/kg qdx9 s.c., Day 23
  Tumor volume (mm^3), Mean ± SEM: 762 ± 62 mm^3
3 mg/kg qdx5 then 1 mg/kg qdx9 s.c., Day 25
  Tumor volume (mm^3), Mean ± SEM: 1024 ± 75 mm^3
Compound 1 1 mg/kg
  ILS (%): 13.8%
  MST: 33.0 days
Compound 1 3/1 mg/kg
  ILS (%): 19.0%
  MST: 34.5 days
Cpd. 1 1 mg/kg
  RTV at day 25: 13.65 ± 1.13
  T/C (%): 46.10%
  TGI (%): 53.9%
  Tumor Size (mm^3) at day 25, Mean ± SEM: 782 ± 53 mm^3
Cpd. 1 3/1 mg/kg
  RTV at day 25: 17.45 ± 0.83
  T/C (%): 58.95%
  TGI (%): 41.05%
  Tumor Size (mm^3) at day 25, Mean ± SEM: 1024 ± 75 mm^3
